According to ChEMBL document CHEMBL2074176, “Multidrug resistance protein 1 (MRP1, ABCC1) mediates resistance to mitoxantrone via glutathione-dependent drug efflux” (Mol Pharmacol, 2006):

Key:
Type in all cases: functional, cell-based
[1] = biological target: T1, Multidrug resistance-associated protein 1 (Homo sapiens, UniProt P33527); test: TP_TRANSPORTER: transport in etoposide-selected MCF7 cells
[2] = biological target: T1, Multidrug resistance-associated protein 1; test: TP_TRANSPORTER: cell accumulation in MCF7/MRP1-M6 cells
[3] = biological target: T1, Multidrug resistance-associated protein 1; test: TP_TRANSPORTER: cell accumulation in MCF7/MRP1-M24 cells
[4] = biological target: T1, Multidrug resistance-associated protein 1; test: TP_TRANSPORTER: cell accumulation in MCF7/MRP1-10 cells
[5] = biological target: T1, Multidrug resistance-associated protein 1; test: TP_TRANSPORTER: ATP- and GSH-dependent transport in MCF7/MRP1-10 cells

T1 sequence (P33527 whole entry): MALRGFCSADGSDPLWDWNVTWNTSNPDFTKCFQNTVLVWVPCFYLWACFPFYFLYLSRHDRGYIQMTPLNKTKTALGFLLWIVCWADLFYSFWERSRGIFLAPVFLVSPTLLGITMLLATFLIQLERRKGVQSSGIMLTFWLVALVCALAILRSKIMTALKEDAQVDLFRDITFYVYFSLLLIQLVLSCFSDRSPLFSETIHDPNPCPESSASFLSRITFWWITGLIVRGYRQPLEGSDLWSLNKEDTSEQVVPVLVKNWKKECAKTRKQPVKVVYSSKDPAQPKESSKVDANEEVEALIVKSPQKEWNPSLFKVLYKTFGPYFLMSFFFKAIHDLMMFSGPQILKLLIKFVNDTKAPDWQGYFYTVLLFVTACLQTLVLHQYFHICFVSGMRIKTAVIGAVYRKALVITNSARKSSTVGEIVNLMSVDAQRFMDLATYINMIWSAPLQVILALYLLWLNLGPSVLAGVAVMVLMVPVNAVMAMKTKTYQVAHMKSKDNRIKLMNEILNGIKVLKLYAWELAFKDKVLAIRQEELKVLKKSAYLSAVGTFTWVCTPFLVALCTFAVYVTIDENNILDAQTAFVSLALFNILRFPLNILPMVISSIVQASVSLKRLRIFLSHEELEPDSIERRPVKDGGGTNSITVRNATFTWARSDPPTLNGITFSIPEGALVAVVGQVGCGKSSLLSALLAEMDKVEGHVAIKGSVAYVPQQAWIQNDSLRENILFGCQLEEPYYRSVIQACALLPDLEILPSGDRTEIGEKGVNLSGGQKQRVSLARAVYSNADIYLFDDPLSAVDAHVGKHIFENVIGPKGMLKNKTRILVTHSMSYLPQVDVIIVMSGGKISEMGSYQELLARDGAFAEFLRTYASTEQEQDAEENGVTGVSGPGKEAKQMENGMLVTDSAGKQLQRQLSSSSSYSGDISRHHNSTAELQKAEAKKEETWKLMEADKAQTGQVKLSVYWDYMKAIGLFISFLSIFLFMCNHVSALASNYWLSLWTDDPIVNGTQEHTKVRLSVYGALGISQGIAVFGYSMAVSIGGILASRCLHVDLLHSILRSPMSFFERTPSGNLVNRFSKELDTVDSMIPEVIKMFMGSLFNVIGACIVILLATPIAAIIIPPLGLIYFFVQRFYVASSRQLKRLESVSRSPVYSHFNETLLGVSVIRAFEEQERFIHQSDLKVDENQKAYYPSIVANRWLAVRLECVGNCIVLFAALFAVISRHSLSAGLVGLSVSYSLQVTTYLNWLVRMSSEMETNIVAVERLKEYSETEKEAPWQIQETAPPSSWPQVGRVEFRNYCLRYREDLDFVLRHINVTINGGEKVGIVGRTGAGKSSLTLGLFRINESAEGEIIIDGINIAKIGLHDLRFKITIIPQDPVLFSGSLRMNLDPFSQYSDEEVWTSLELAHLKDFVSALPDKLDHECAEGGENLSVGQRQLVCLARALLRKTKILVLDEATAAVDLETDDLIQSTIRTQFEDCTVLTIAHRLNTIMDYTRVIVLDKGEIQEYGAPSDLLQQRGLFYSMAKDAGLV

O=C1c2c(O)ccc(O)c2C(=O)c2c(NCCNCCO)ccc(NCCNCCO)c21 [MITOXANTRONE]
Activity [1]: substrate [+] | IC50 [2]: 1.5 nM | IC50 [3]: 1.5 nM | IC50 [4]: 1.9 nM | Activity [5]: substrate [+]
